Values joined by “and” are separate entries in the source; they are usually repeats but may differ in a detail not shown here. Equal entries are not always repeated.
Experiments:
HepG2 cells = experiment: HepG2 cytotoxicity assay (Live/Dead staining); details: replicates
Method: Therefore, we assessed cytotoxicity in the human hepatoma HepG2 cell line. We required a PvNMT to HsNMT SI > 20 for further screening. HepG2 cells were exposed to the compounds at concentrations ranging from 1 to 20 µM for […], and toxicity was assessed via live-dead staining.
The viability of the HepG2 cell line following exposure to the compounds was determined by a Live/Dead cell assay kit (Invitrogen). Briefly, cells were added to a 96-well plate at a concentration of 5000 cells per well, excluding the exterior wells. Cells were exposed to the compounds at different concentrations ranging from 1 to 20 µM. Cells were washed every 24 h and supplemented with fresh doses of compounds. At 72 h post-treatment, 1 µM calcein-AM and 1 µM ethidium homodimer were added to the wells and incubated for 10 min at 37 °C. After washing with PBS, the cells were visualized with fluorescent microscopy (Keyence BZ-X700).

P. falciparum NF54 = experiment: P. falciparum blood stage assay (SYBR Green); type: cell-based, Plasmodium falciparum; details: 72 h; for P. falciparum blood-stage development (parasite DNA level fluorescence): untreated = 129; for IC50: Plasmodium falciparum, NF54, ring-stage parasites, relative IC50
Method: To assess whether any of the PvNMTis developed here could qualify as TCP-1 candidates, we assessed the effect of each compound on blood-stage P. falciparum parasites, as there is currently no well-established in vitro platform for screening P. vivax blood-stage parasites. Synchronized P. falciparum NF54 ring-stage parasites were treated for 72 h with each compound at various concentrations, ranging from 0.625 µM to 10 µM, and parasite DNA replication was measured using a fluorescent DNA binding dye (SYBR Green).
Sorbitol-synchronized P. falciparum NF54 ring-stage parasites were cultured at a parasitemia of 0.5% and hematocrit of 1.5% in a 96-well microtiter plate. Parasites were treated with each NMT inhibitor compound at 0.625, 1.25, 2.5, 5, or 10 µM for 72 h. Direct lysis of the blood cells to release the parasite DNA was performed by adding 100 μl of LBS buffer containing SYBR green I DNA binding dye to each well. […] ICEstimator regression analysis (http://www.antimalarial-icestimator.net/) was used to obtain relative IC50 values for each compound.

P. vivax hypnozoites = experiment: P. vivax liver stage assay, hypnozoites; type: cell-based, Plasmodium vivax; details: for Hypnozoites per well: Isolate 2, replicate wells (Figure 6d); for Number of liverstage hypnozoites per well: 8 dpi; for IC50: Hepatocyte, 120 h, primary human hepatocytes, treatment day 5 to 8 post-infection, isolate 2
Method: Finally, we evaluated the NMT-binding compounds against non-developing P. vivax hypnozoites. […] (Fig. 6A). […] We, therefore, evaluated the impact of all tested compounds on P. vivax hypnozoites using these two isolates.
Plasmodium vivax liver stage assays were performed as described previously. Cryopreserved primary human hepatocytes (Cat No. F00995-P) and hepatocyte culture medium (HCM) (InVitroGroTM CP Medium) were obtained from Bioreclamation IVT, Inc., (Baltimore, MD, USA). Briefly, we seeded 384-well plates with primary hepatocytes from a single donor lot at a density of 25,000 cells per well. We then infected the hepatocytes with 14,000 freshly hand-dissected sporozoites per well. Cells were exposed to the compounds at indicated concentrations from day 5 post-infection. We used Pi4K inhibitor MMV390048, at 20 µM, as a positive control to eliminate P. vivax liver schizonts. We then proceeded to feed cultures every day, replacing the compounds until day 8 post-infection. Cells were fixed with 4% PFA, permeabilized with 1% Triton X-100, blocked with 2% BSA, and stained with DAPI and PvUIS4 antibodies to detect schizonts and hypnozoites forms by confocal microscopy. For antibody dilutions, PvUIS4 (kind gift from Dr. Noah Sather, Seattle Children’s Research Institute) was diluted 1:250 and the secondary antibody was anti-mouse AlexaFluor-594 (Cat # A-11005; RRID: AB_2534073) diluted 1:1000. DAPI was diluted 1:2000. The images were processed, analyzed and outlier cells were removed using IMARIS (Bitplane Inc.) image analysis software.

PvNMT = PvNMT (Plasmodium vivax, UniProt A5K1A2); experiment: NMT activity assay (CPM detection of free CoA), PvNMT; details: for IC50: PvNMT IC50, mean of two or more determinations; for SI: enzyme selectivity, HsNMT IC50/PvNMT IC50
HsNMT1 = target: T1, HsNMT1 (Homo sapiens, UniProt P30419); experiment: NMT activity assay (CPM detection of free CoA), HsNMT
T1 sequence (P30419 1-496): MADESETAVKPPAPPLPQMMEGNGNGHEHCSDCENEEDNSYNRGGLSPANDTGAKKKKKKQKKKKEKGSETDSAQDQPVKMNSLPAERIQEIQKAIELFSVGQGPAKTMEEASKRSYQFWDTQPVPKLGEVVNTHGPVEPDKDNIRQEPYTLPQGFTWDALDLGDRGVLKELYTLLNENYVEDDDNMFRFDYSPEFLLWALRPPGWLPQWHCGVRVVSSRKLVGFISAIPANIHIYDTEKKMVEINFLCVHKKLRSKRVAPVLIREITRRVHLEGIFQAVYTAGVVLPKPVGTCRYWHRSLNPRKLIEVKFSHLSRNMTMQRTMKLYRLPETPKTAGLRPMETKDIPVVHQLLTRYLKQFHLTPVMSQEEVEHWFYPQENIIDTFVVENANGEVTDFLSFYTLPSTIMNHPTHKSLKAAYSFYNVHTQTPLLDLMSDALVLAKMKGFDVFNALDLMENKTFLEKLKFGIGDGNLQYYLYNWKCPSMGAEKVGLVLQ

[1] = 20 µM, isolate 1, technical replicates (Fig. 6C)
[2] = 20 µM, isolate 2, technical replicates (Fig. 6C)
[3] = 20 µM, isolate 3, technical replicates (Fig. 6C)

PvNMT, sequence (A5K1A2 entry or part of it): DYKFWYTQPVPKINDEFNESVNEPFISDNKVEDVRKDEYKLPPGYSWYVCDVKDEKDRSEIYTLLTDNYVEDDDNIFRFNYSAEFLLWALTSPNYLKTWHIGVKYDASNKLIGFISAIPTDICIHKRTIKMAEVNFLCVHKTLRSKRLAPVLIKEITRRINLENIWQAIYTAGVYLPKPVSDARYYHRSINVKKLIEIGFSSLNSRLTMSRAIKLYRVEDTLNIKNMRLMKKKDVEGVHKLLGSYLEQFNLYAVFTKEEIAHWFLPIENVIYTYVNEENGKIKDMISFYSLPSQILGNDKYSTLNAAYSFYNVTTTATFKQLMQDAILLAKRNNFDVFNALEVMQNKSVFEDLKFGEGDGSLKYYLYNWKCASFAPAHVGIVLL

| Compound | Percentage of live HepG2 cells compared with diluent controls (HepG2 cells; 1 μM) | Percentage of live HepG2 cells compared with diluent controls (HepG2 cells; 2.5 μM) | Percentage of live HepG2 cells compared with diluent controls (HepG2 cells; 5 μM) | Percentage of live HepG2 cells compared with diluent controls (HepG2 cells; 10 μM) | Percentage of live HepG2 cells compared with diluent controls (HepG2 cells; 20 μM) | P. falciparum blood-stage development (parasite DNA level fluorescence) (P. falciparum NF54; 0.625 uM) | P. falciparum blood-stage development (parasite DNA level fluorescence) (P. falciparum NF54; 1.25 uM) | P. falciparum blood-stage development (parasite DNA level fluorescence) (P. falciparum NF54; 2.5 uM) | P. falciparum blood-stage development (parasite DNA level fluorescence) (P. falciparum NF54; 5 uM) | P. falciparum blood-stage development (parasite DNA level fluorescence) (P. falciparum NF54; 10 uM) | IC50 (P. falciparum NF54) | Hypnozoites per well (P. vivax hypnozoites; 1.25 uM) | Hypnozoites per well (P. vivax hypnozoites; 2.5 uM) | Hypnozoites per well (P. vivax hypnozoites; 5 uM) | Hypnozoites per well (P. vivax hypnozoites; 10 uM) | Number of liverstage hypnozoites per well (P. vivax hypnozoites; [1]) | Number of liverstage hypnozoites per well (P. vivax hypnozoites; [2]) | Number of liverstage hypnozoites per well (P. vivax hypnozoites; [3]) | Hypnozoites per well (P. vivax hypnozoites; 20 uM) | IC50 (P. vivax hypnozoites; Plasmodium vivax) | further results |
| --- | --- | --- | --- | --- | --- | --- | --- | --- | --- | --- | --- | --- | --- | --- | --- | --- | --- | --- | --- | --- | --- |
| Cc1nn(C)c(C)c1CCOc1cccnc1-c1ccnc(N2CCNCC2)c1 [Compound 12a] | 103.266% and 104.098% | 103.396% and 103.37% | 103.812% and 94.3274% | 93.0541% and 92.1966% | 80.685% and 80.1653% | 128.4 | 125.3 | 116.9 | 107.7 | 96.27 | 810 nM | 12 and 10 and 8 | 8 and 7 and 13 | 6 and 8 and 7 | 1 and 3 and 0 | 8 per well (2×) and 0 per well | 0 per well (2×) and 3 per well | 0 per well | 0 (2×) and 3 | 5700 nM | hypnozoites (fold change to DMSO) mean diff (P. vivax hypnozoites; isolate 1, 20 µM): 0.754; hypnozoites (fold change to DMSO) mean diff (P. vivax hypnozoites; isolate 2, 20 µM): 0.897; IC50 (PvNMT): 36.8 nM; SI (PvNMT): 146.7; IC50 (HsNMT1): 5400 nM |
| Cc1nn(C)c(C)c1CCOc1cccnc1-c1cccc(N2CCNCC2)c1 [Compound 12b] | 108.074% and 106.671% | 106.359% and 104.514% | 106.385% and 94.2234% | 92.0406% and 101.317% | 83.7772% and 84.1151% | 118 | 125.4 | 119.5 | 108.7 | 105.8 | 470 nM | 3 and 4 (2×) | 3 and 4 (2×) | 2 (2×) and 3 | 1 (2×) and 0 | 5 per well and 9 per well and 0 per well | 1 per well and 0 per well (2×) | 0 per well | 1 and 0 (2×) | 1700 nM | IC50 (PvNMT): 80.2 nM and 80.1 nM; SI (PvNMT): > 145 and > 150 and > 250; IC50 (HsNMT1): 20800 nM |
| Cc1nn(C)c(C)c1CCOc1ccccc1-c1cccc(N2CCNCC2)c1 [Compound 12d] | 110.153% and 106.021% | 105.943% and 99.4465% | 100.018% and 98.1213% | 93.0281% and 104.514% | 84.6088% and 84.0111% | 123.5 | 124.2 | 118.5 | 101.9 | 92.65 | 800 nM | 11 and 8 and 9 | 7 (2×) and 8 | 5 (2×) and 7 | 3 (2×) and 2 | 1 per well (2×) and 0 per well | 3 per well and 0 per well and 1 per well | 0 per well | 3 and 0 and 1 | 4700 nM | hypnozoites (fold change to DMSO) mean diff (P. vivax hypnozoites; isolate 1, 20 µM): 0.939; hypnozoites (fold change to DMSO) mean diff (P. vivax hypnozoites; isolate 2, 20 µM): 0.862; IC50 (PvNMT): 48.5 nM; SI (PvNMT): 153.4; IC50 (HsNMT1): 7440 nM |
| c1cncc(CCOc2ccc3ccccc3c2-c2ccnc(N3CCNCC3)c2)c1 [Compound 30c] | 102.591% and 103.526% | 103.812% and 93.9636% | 93.7037% and 93.0801% | 92.5344% and 91.9887% | 79.2818% and 86.3846% | 126.9 | 124 | 114.3 | 101.4 | 93.99 | 680 nM | 8 and 15 and 7 | 5 and 6 and 12 | 0 and 5 and 13 | 5 and 0 and 4 | 0 per well and 1 per well and 4 per well | 4 per well (2×) and 1 per well | 0 per well | 4 (2×) and 1 | 3800 nM | inhibition at 20 µM (P. vivax hypnozoites; Plasmodium vivax, 20 µM): > 75%; hypnozoites (fold change to DMSO) mean diff (P. vivax hypnozoites; isolate 1, 20 µM): 0.939; hypnozoites (fold change to DMSO) mean diff (P. vivax hypnozoites; isolate 2, 20 µM): 0.690; IC50 (PvNMT): 248 nM |

From publication PMC10480161, “Identification of potent and selective N-myristoyltransferase inhibitors of Plasmodium vivax liver stage hypnozoites and schizonts” (Nature Communications, 2023)
